Measured values from patent US20200223889A1, “Bicyclic Compounds Capable of Binding to Melanocortin 4 Receptor” (Novo Nordisk A/S, priority 2017, published 2020).
Positions of bridges follow the written chain, without caps; N, C: chain ends. Non-standard residues stand in square brackets, D forms with d. Residues, ends and D or L forms follow the SMILES beside them. Phe(4-CN) = N#Cc1ccc(C[C@H](N)C(=O)O)cc1; 1Nal = N[C@@H](Cc1cccc2ccccc12)C(=O)O; Cit = NC(=O)NCCC[C@H](N)C(=O)O

How the values were obtained:
[1] = target: T1, human MC4R (Homo sapiens, UniProt P32245); assay: 125NDP-α-MSH competitive binding to membranes of BHK cells expressing human MC4 receptor (filtration assay); conditions: human MC4R, BHK cell membranes, 125NDP-α-MSH radioligand; read-out: MC4R binding Ki
T1 construct: expressed in transfected cells
T1 sequence (P32245 whole entry): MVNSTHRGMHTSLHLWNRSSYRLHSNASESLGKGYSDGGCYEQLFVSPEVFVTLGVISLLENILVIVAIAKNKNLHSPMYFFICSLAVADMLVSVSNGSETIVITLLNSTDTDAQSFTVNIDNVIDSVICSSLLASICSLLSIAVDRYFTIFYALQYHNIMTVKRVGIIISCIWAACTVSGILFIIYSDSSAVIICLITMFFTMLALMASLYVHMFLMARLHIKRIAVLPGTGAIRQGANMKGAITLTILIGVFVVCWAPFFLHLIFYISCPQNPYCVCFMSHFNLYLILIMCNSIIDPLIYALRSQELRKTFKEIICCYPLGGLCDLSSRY
Experimental: In Vitro ^125NDP-α-MSH Binding to Recombinant BHK Cells Expressing Human MC4 Receptor (Filtration Assay)
In order to assess the binding affinity of the selected compounds for the human MC4R competitive binding assays was performed with radiolabeled NDP-alpha MSH (^125NDP-α-MSH).
The assay was performed in 96-well filterplates (Unifilter) using BHK cells stably expressing the human MC4 receptor.
The BHK cell membranes were prepared from frozen or fresh cells that were homogenized in 20 mM HEPES pH 7.1, 5 mM MgCl2, 1 mg/ml bacitracin (buffer 1) and centrifuged at 15000 rpm at 4° C., 10 min in a Sorvall RC 5B plus, SS-34 rotor. The supernatant was discarded, and the pellets were re-suspended in buffer 1, homogenized and centrifuged two more times. The final pellets were re-suspended in buffer 1 and the protein concentration was measured and adjusted with buffer 1 to 5 mg/ml and the membrane preparation was kept at −80° C. until assay. The assay was run on a dilution of this cell membrane suspension without any further preparation. The suspension was diluted to give maximally 10% specific binding, i.e. to approx. 50-100 fold dilution, optimized after each membrane preparation. The assay was performed in a total volume of 200 μl: 50 μl of cell suspension, 50 μl of ^125NDP-α-MSH (apx. […] in final concentration), 50 μl of test compound and 50 μl binding buffer were mixed and incubated for 2 h at 25° C. (binding buffer: 25 mM HEPES, pH 7.0, 1 mM CaCl2), 1 mM MgSO4, 1 mM EGTA, 0.005% Tween™ 20 and 0.1% HSA or, alternatively, 0.1% ovalbumin (Sigma; catalogue No. A-5503)). Test compounds were dissolved in 100% DMSO and diluted in binding buffer in a dose range from 1 μM to 0.001 nM. Radiolabelled ligand and membranes were diluted in binding buffer. The incubation was stopped by dilution with 8×100 μl ice-cold 0.9% NaCl. The radioactivity retained on the filters was counted using a Packard Topcounter. The data were analysed by non-linear regression analysis of binding curves, using the Windows™ program GraphPad™ Prism (GraphPad Software, USA).

[2] = target: T1, human MC4R; assay: Functional cAMP assay (CisBio HTRF) in BHK cells expressing human MC4R; assay type: cell-based; conditions: for EC50: BHK cells expressing human MC4R, '>' = highest dose used with no response, read-out: MC4R cAMP EC50; for MC1R/MC4R cAMP EC50 ratio: MC1R cAMP EC50 divided by MC4R cAMP EC50
Procedure, shortened: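 Compound working solutions, 10-fold dilutions from 2 μM at twice final strength, in buffer containing 1 mM IBMX, were incubated 30 min at 25 °C with BHK cells stably carrying human MC4R or MC1R. Accumulated cAMP was then detected by competitive HTRF after 1 h at 25 °C and fitted by non-linear regression.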

Row | Compound | Ki [1] [nM] | EC50 [2] [nM] | MC1R/MC4R cAMP EC50 ratio [2]
1 | C[C@@H]1NC(=O)[C@@H]2CSSC[C@H](NC(=O)[C@H](Cc3c[nH]c4ccccc34)NC(=O)[C@H](CCCNC(N)=O)NC(=O)[C@@H](Cc3ccccc3)NC(=O)[C@H](Cc3c[nH]cn3)NC1=O)C(=O)N[C@@H](C)C(=O)N[C@@H](CCCCN)C(=O)N[C@@H](CCCCN)C(=O)N[C@@H](CCCCN)C(=O)N[C@@H](Cc1c[nH]c3ccccc13)C(=O)N2 [Chem. 48, c[c[Cys-Ala-His-D-Phe-Cit-Trp-Cys]- Ala-Lys-Lys-Lys-Trp]] (cyclo(AH[dF][Cit]WCAKKKWC); disulfide 6-12) | 0.15 | 0.06 | 152
2 | N=C(N)NCCC[C@@H]1NC(=O)[C@@H]2CSSC[C@H](NC(=O)[C@H](Cc3c[nH]c4ccccc34)NC(=O)[C@H](CCCNC(N)=O)NC(=O)[C@@H](Cc3ccccc3)NC(=O)[C@H](Cc3c[nH]cn3)NC1=O)C(=O)N[C@@H](CCCNC(=N)N)C(=O)N[C@@H](Cc1c[nH]cn1)C(=O)N[C@H](Cc1ccccc1)C(=O)N[C@@H](CCCNC(N)=O)C(=O)N[C@@H](Cc1c[nH]c3ccccc13)C(=O)N2 [Chem. 54, c[c[Cys-Arg-His-D-Phe-Cit-Trp-Cys]- Arg-His-D-Phe-Cit-Trp]] (cyclo(CRH[dF][Cit]WCRH[dF][Cit]W); disulfide 1-7) | 0.21 | 0.04 | 7
3 | C[C@@H]1NC(=O)[C@@H]2CSSC[C@H](NC(=O)[C@H](Cc3c[nH]c4ccccc34)NC(=O)[C@H](CCC(N)=O)NC(=O)[C@@H](Cc3ccccc3)NC(=O)[C@H](Cc3c[nH]cn3)NC1=O)C(=O)N[C@@H](C)C(=O)N[C@@H](CCCCN)C(=O)N[C@H](CCCCN)C(=O)N[C@@H](CCCCN)C(=O)N[C@@H](Cc1c[nH]c3ccccc13)C(=O)N2 [Chem. 57, c[c[Cys-Ala-His-D-Phe-Gln-Trp-Cys]- Ala-Lys-D-Lys-Lys-Trp]] (cyclo(AH[dF]QWCAK[dK]KWC); disulfide 6-12) | 0.21 | 0.19 | 55
4 | CC(=O)NCCCC[C@@H]1NC(=O)[C@@H](Cc2ccccc2)NC(=O)[C@H](Cc2c[nH]cn2)NC(=O)[C@H](C)NC(=O)[C@@H]2CSSC[C@H](NC(=O)[C@H](Cc3c[nH]c4ccccc34)NC1=O)C(=O)N[C@@H](C)C(=O)N[C@@H](CCCCN)C(=O)N[C@H](CCCCN)C(=O)N[C@@H](CCCCN)C(=O)N[C@@H](Cc1c[nH]c3ccccc13)C(=O)N2 [Chem. 58, c[c[Cys-Ala-His-D-Phe-AcLys-Trp- Cys]-Ala-Lys-D-Lys-Lys-Trp]] (cyclo(AH[dF]K(Ac)WCAK[dK]KWC); disulfide 6-12) | 0.09 | 0.11 | 36
5 | C[C@@H]1NC(=O)[C@@H]2CSSC[C@H](NC(=O)[C@H](Cc3c[nH]c4ccccc34)NC(=O)[C@H](Cc3c[nH]cn3)NC(=O)[C@@H](Cc3ccccc3)NC(=O)[C@H](Cc3c[nH]cn3)NC1=O)C(=O)N[C@@H](C)C(=O)N[C@@H](CCCCN)C(=O)N[C@@H](CCCCN)C(=O)N[C@@H](CCCCN)C(=O)N[C@@H](Cc1c[nH]c3ccccc13)C(=O)N2 [Chem. 60, c[c[Cys-Ala-His-D-Phe-His-Trp-Cys]- Ala-Lys-Lys-Lys-Trp]] (cyclo(AH[dF]HWCAKKKWC); disulfide 6-12) | 0.1 | 0.17 | 313
6 | C[C@@H]1NC(=O)[C@@H]2CSSC(C)(C)[C@H](NC(=O)[C@H](Cc3c[nH]c4ccccc34)NC(=O)[C@H](CCCNC(=N)N)NC(=O)[C@@H](Cc3ccccc3)NC(=O)[C@H](Cc3c[nH]cn3)NC1=O)C(=O)N[C@@H](C)C(=O)N[C@@H](Cc1c[nH]cn1)C(=O)N[C@H](Cc1ccccc1)C(=O)N[C@@H](CCCNC(=N)N)C(=O)N[C@@H](Cc1c[nH]c3ccccc13)C(=O)N2 [Chem. 63, c[c[Pen-Ala-His-D-Phe-Arg-Trp-Cys]- Ala-His-D-Phe-Arg-Trp]] | 0.08 | 0.02 | 42
7 | C[C@@H]1NC(=O)[C@@H]2CSSC[C@H](NC(=O)[C@H](Cc3cccc4ccccc34)NC(=O)[C@H](CCCNC(=N)N)NC(=O)[C@@H](Cc3ccccc3)NC(=O)[C@H](Cc3c[nH]cn3)NC1=O)C(=O)N[C@@H](C)C(=O)N[C@@H](CCCCN)C(=O)N[C@@H](CCCCN)C(=O)N[C@@H](CCCCN)C(=O)N[C@@H](Cc1c[nH]c3ccccc13)C(=O)N2 [Chem. 64, c[c[Cys-Ala-His-D-Phe-Arg-1-Nal- Cys]-Ala-Lys-Lys-Lys-Trp]] (cyclo([1Nal]CAKKKWCAH[dF]R); disulfide 2-8) | 0.09 | 0.03 | 141
8 | C[C@@H]1NC(=O)[C@@H]2CSSC[C@H](NC(=O)[C@H](Cc3ccc(C#N)cc3)NC(=O)[C@H](CCCNC(=N)N)NC(=O)[C@@H](Cc3ccccc3)NC(=O)[C@H](Cc3c[nH]cn3)NC1=O)C(=O)N[C@@H](C)C(=O)N[C@@H](CCCCN)C(=O)N[C@@H](CCCCN)C(=O)N[C@@H](CCCCN)C(=O)N[C@@H](Cc1c[nH]c3ccccc13)C(=O)N2 [Chem. 65, c[c[Cys-Ala-His-D-Phe-Arg-4-CN- Phe-Cys]-Ala-Lys-Lys-Lys-Trp]] (cyclo(AH[dF]R[Phe(4-CN)]CAKKKWC); disulfide 6-12) | 0.47 | 0.42 | 26
9 | C[C@@H]1NC(=O)[C@@H]2CSSC[C@H](NC(=O)[C@H](CCCNC(=N)N)NC(=O)[C@H](CCCCN)NC(=O)[C@H](CCCCN)NC(=O)[C@H](CCCCN)NC1=O)C(=O)N1CCC[C@H]1C(=O)N[C@@H](Cc1c[nH]cn1)C(=O)N[C@H](Cc1ccccc1)C(=O)N[C@@H](Cc1c[nH]cn1)C(=O)N[C@@H](Cc1c[nH]c3ccccc13)C(=O)N2 [Chem. 71, c[c[Cys-Pro-His-D-Phe-His-Trp-Cys]- Ala-Lys-Lys-Lys-Arg]] (cyclo(AKKKRCPH[dF]HWC); disulfide 6-12) | 0.05 | 0.08 | 415
10 | C[C@@H]1NC(=O)[C@@H]2CSSC[C@H](NC(=O)[C@H](CCCNC(=N)N)NC(=O)[C@H](CCCCN)NC(=O)[C@H](CCCCN)NC(=O)[C@H](CCCCN)NC1=O)C(=O)N1CCC[C@H]1C(=O)N[C@@H](Cc1c[nH]cn1)C(=O)N[C@H](Cc1ccccc1)C(=O)N[C@@H](CCCNC(N)=O)C(=O)N[C@@H](Cc1c[nH]c3ccccc13)C(=O)N2 [Chem. 72, c[c[Cys-Pro-His-D-Phe-Cit-Trp-Cys]- Ala-Lys-Lys-Lys-Arg]] (cyclo(AKKKRCPH[dF][Cit]WC); disulfide 6-12) | 0.03 | 0.03 | 195
11 | NCCCC[C@@H]1NC(=O)[C@H](CCCCN)NC(=O)[C@@H]2CSSC[C@H](NC(=O)[C@H](Cc3c[nH]c4ccccc34)NC(=O)[C@H](CCCCN)NC(=O)[C@H](CCCCN)NC1=O)C(=O)N1CCC[C@H]1C(=O)N[C@@H](Cc1c[nH]cn1)C(=O)N[C@H](Cc1ccccc1)C(=O)N[C@@H](Cc1c[nH]cn1)C(=O)N[C@@H](Cc1c[nH]c3ccccc13)C(=O)N2 [Chem. 75, c[c[Cys-Pro-His-D-Phe-His-Trp-Cys]- Lys-Lys-Lys-Lys-Trp]] (cyclo(CKKKKWCPH[dF]HW); disulfide 1-7) | 0.11 | 0.44 | 155
12 | C[C@@H]1NC(=O)[C@@H]2CSSC[C@H](NC(=O)[C@H](Cc3c[nH]c4ccccc34)NC(=O)[C@H](CCCCN)NC(=O)[C@H](CCCCN)NC(=O)[C@H](CCCCN)NC1=O)C(=O)N[C@@H](CCCCN)C(=O)N[C@@H](Cc1c[nH]cn1)C(=O)N[C@H](Cc1ccccc1)C(=O)N[C@@H](Cc1c[nH]cn1)C(=O)N[C@@H](Cc1c[nH]c3ccccc13)C(=O)N2 [Chem. 76, c[c[Cys-Lys-His-D-Phe-His-Trp-Cys]- Ala-Lys-Lys-Lys-Trp]] (cyclo(AKKKWCKH[dF]HWC); disulfide 6-12) | 0.09 | 0.16 | 136
13 | NCCCC[C@@H]1NC(=O)[C@H](CCCCN)NC(=O)[C@H](CCCCN)NC(=O)[C@@H]2CSSC[C@H](NC(=O)[C@H](Cc3c[nH]c4ccccc34)NC(=O)[C@H](CCCCN)NC1=O)C(=O)N[C@@H](CCCCN)C(=O)N[C@@H](Cc1c[nH]cn1)C(=O)N[C@H](Cc1ccccc1)C(=O)N[C@@H](Cc1c[nH]cn1)C(=O)N[C@@H](Cc1c[nH]c3ccccc13)C(=O)N2 [Chem. 77, c[c[Cys-Lys-His-D-Phe-His-Trp-Cys]- Lys-Lys-Lys-Lys-Trp]] (cyclo(CKH[dF]HWCKKKKW); disulfide 1-7) | 0.72 | – | 108
